In data set [1] the test system is Rattus norvegicus. Nature of the data set: Compound was evaluated for percent tranexamic acid recovered in rat urine within 24 hr after oral administration of 0.1 mmol/kg of body weight per mole of pro drug. It counts as ADME, organism-based. To be noted: in vivo.
Data set [2] concerns Rattus norvegicus. Nature of the data set: Compound was evaluated for percent tranexamic acid recovered in rat urine within 24 hr after oral administration of per moiety tranexamic acid. Conditions: in vivo. It counts as ADME, organism-based.
Data set [3] can be described thus: Half-life in phosphate buffer at pH 1.2. It counts as ADME.
Data set [4] in a line: Half-life in phosphate buffer at pH 7.5. It counts as ADME.
The nature of data set [5]: Half-life in buffer at pH 1.2. It counts as ADME.
The nature of data set [6]: Half-life in buffer at pH 7.5. It counts as ADME.
Data set [7] is described as follows: Half-life in 90% human heparinized plasma. It counts as ADME.
Data set [8] deals with Rattus norvegicus. Nature of the data set: Compound was evaluated for percent tranexamic acid recovered in rat urine within 24 hr after oral administration of 0.1 mmol/kg of body weight. It counts as ADME, organism-based. Conditions: in vivo.
In data set [9] the test system is Rattus norvegicus. In words: Compound was evaluated for percent recovery of tranexamic acid in urine from rat within 24 hr after oral administration of the dose […] of body weight. It counts as ADME, organism-based. Conditions: in vivo.
Data set [10] deals with Rattus norvegicus. In words: Compound was evaluated for percent recovery of tranexamic acid in urine from rat within 24 hr after oral administration of the dose 1 mmol/kg of body weight. To be noted: in vivo. It counts as ADME, organism-based.

Usually half-life stands for how long it takes for the measured level to halve. Read a high half-life as slow loss.

`CCN(CC)C(=O)C(OC(=O)[C@H]1CC[C@H](CN)CC1)OC(=O)[C@H]1CC[C@](C)(CN)CC1.Cl.Cl` (stereo partly specified): the values for the Absorption in data set [1] and in data set [2] were 34% and 17%, respectively.

Take `C[C@]1(CN)CC[C@H](C(=O)OCc2oc(=O)oc2COC(=O)[C@H]2CC[C@H](CN)CC2)CC1.Cl.Cl`: the Absorption in data set [1] is 54%; in data set [2], 27%.

In [1], `Cc1oc(=O)oc1COC(=O)[C@H]1CC[C@H](CN)CC1.Cl` displayed an Absorption of 67%. Further, the half-life in data set [3] is 25 h; in [4] it was 2 h.

In [1], `CC(C)C(=O)OCOC(=O)[C@H]1CC[C@H](CN)CC1.Cl` had an Absorption of 54%. Also, the half-life in data set [5] was 18 h; in [6], 36 h; in data set [7] it was 0.00833 h.

`CC(=O)OC(C)OC(=O)[C@H]1CC[C@H](CN)CC1.Cl` (stereo partly specified): the Absorption in data set [1] turned out to be 59%. Besides, the half-life in data set [5] is 14 h; in data set [6], 68 h; in data set [7], 0.1 h.

For the compound `CC(OC(=O)[C@H]1CC[C@H](CN)CC1)OC(=O)[C@H]1CC[C@](C)(CN)CC1.Cl.Cl` (stereo partly specified), the Absorption in data set [1] stood at 42%; in data set [2], 21%.

The compound `Cl.NC[C@H]1CC[C@H](C(=O)Oc2ccc(CCC(=O)O)cc2)CC1` [CETRAXATE HYDROCHLORIDE] yielded an Absorption in [1] of 28%.

Turning to `CCOC(=O)[C@H]1CC[C@H](CN)CC1.Cl`, the Absorption in [8] was determined as 92%. In addition, the half-life in [7] amounted to 4 h.

Turning to `CC(C)(C)C(=O)OCOC(=O)[C@H]1CC[C@H](CN)CC1.Cl`, the Recovery in data set [9] is 36%; in data set [10], 58%. The same compound yielded an Absorption in [1] of 36%. The figures for the half-life in [5], in data set [6] and in data set [7] were 164 h, 147 h and 0.0333 h, respectively.

Take `CC(C)(C)C(=O)NCOC(=O)[C@H]1CC[C@H](CN)CC1.Cl`: the Absorption in data set [1] was 22%. Moreover, the half-life in [5] is 2 h; in [6], 10 h.

In the case of `CCC(OC(=O)[C@H]1CC[C@H](CN)CC1)OC(=O)[C@H]1CC[C@](C)(CN)CC1.Cl.Cl` (stereo partly specified), the Absorption amounted to 26% in [1] and 13% in data set [2]. The half-life was 29 h in data set [5], 70 h in data set [6] and 0.1 h in [7].

In data set [1], `CC(OC(=O)C(C)(C)C)OC(=O)[C@H]1CC[C@H](CN)CC1.Cl` (stereo partly specified) registered an Absorption of 43%.

With `CC(C)OC(=O)OC(C)OC(=O)[C@H]1CC[C@H](CN)CC1.Cl` (stereo partly specified), the Recovery came to 43% in data set [9] and 86% in data set [10]. Also, the Absorption in data set [1] is 43%. In addition, the half-life is 58 h in [5] and 144 h in data set [6].

In the case of `CCOC(=O)OC(C)OC(=O)[C@H]1CC[C@H](CN)CC1.Cl` (stereo partly specified), the Recovery in [9] is 50%; in [10] it was 62%. The compound further showed an Absorption in [1] of 50%. Moreover, the half-life is 54 h in data set [5], 90 h in data set [6] and 0.025 h in [7].

As to `CN(C)C(=O)C(OC(=O)[C@H]1CC[C@H](CN)CC1)OC(=O)[C@H]1CC[C@](C)(CN)CC1.Cl.Cl` (stereo partly specified), the Absorption in data set [1] is on record as 54%; in data set [2] it was 27%. For the same compound, the half-life was 38 h in data set [5] and 6.7 h in [6].

With `Cl.NCc1ccc(C(=O)OCOC(=O)[C@H]2CC[C@H](CN)CC2)cc1`, in data set [1], the Absorption is 35%.

On to `Cl.NC[C@H]1CC[C@H](C(=O)OC2OC(=O)c3ccccc32)CC1` (stereo partly specified), for which the Recovery amounted to 44% in [9] and 54% in [10]. In [1], this compound gave an Absorption of 44%. Besides, in data set [4], the half-life is 5 h.

Turning to `NC[C@H]1CC[C@H](C(=O)O)CC1` [TRANEXAMIC ACID], the Recovery in [10] is 11%. Further, the Absorption in data set [8] turned out to be 22%.

For `CC(OC(=O)C(C)C)OC(=O)[C@H]1CC[C@H](CN)CC1.Cl` (stereo partly specified), the Absorption in data set [1] was 71%. In addition, the values for the half-life in [5] and in data set [6] were 22 h and 140 h, respectively.

As for `C[C@]1(CN)CC[C@H](C(=O)OCOC(=O)[C@H]2CC[C@H](CN)CC2)CC1.Cl.Cl`, the values for the Recovery in data set [9] and in data set [10] were 25% and 32%, respectively. Besides, the Absorption was determined as 50% in data set [1] and 25% in data set [2]. The half-life in data set [5] was 31 h; in data set [6], 26 h; in data set [7], 0.025 h.

For the compound `CCOC(=O)C(OC(=O)[C@H]1CC[C@H](CN)CC1)OC(=O)[C@H]1CC[C@](C)(CN)CC1.Cl.Cl` (stereo partly specified), the values for the Absorption in data set [1] and in [2] were 62% and 31%, respectively. The half-life in data set [5] was 11 h; in data set [6], 0.9 h.

These data come from ChEMBL document CHEMBL1123423, “Tranexamic acid derivatives with enhanced absorption” (J Med Chem, 1986).
